Laboratory results from patent US8192962B2, “Processes for detecting toxic substances” (Daikin Industries, Ltd., priority 2001, dated 2012).

Tested on: Energy system protein genes
Assay: DNA chip mRNA expression in yeast, energy system protein genes (Table 4)
Type: cell-based, Saccharomyces cerevisiae S288C
How it was run: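 Untreated cultures served as reference for log-phase S288C yeast given a growth-inhibiting, non-lethal toxicant dose for 2 h at 25° C. in YPD. Gene expression was measured on a whole-genome DNA chip from Cy3/Cy5-labeled cDNA.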

COc1cc(CNC(=O)CCCCC=CC(C)C)ccc1O [(12), 8-methyl-N-vanillyl-6-nonenamide]
The level of expressed mRNA in the presence of chemical substance/The level of expressed mRNA in the absence of chemical substance (yeast gene YAL060W): 0.8
The level of expressed mRNA in the presence of chemical substance/The level of expressed mRNA in the absence of chemical substance (yeast gene YBL058W, cells incubated two hours with the chemical substance): 0.8
The level of expressed mRNA in the presence of chemical substance/The level of expressed mRNA in the absence of chemical substance (yeast gene YBL099W, cells incubated two hours with the chemical substance): 1.0
The level of expressed mRNA in the presence of chemical substance/The level of expressed mRNA in the absence of chemical substance (yeast gene YBR001C, cells incubated two hours with the chemical substance): 1.0
The level of expressed mRNA in the presence of chemical substance/The level of expressed mRNA in the absence of chemical substance (yeast gene YBR185C, cells incubated two hours with the chemical substance): 0.7
The level of expressed mRNA in the presence of chemical substance/The level of expressed mRNA in the absence of chemical substance (yeast gene YBR221C, cells incubated two hours with the chemical substance): 1.3
The level of expressed mRNA in the presence of chemical substance/The level of expressed mRNA in the absence of chemical substance (yeast gene YCL040W): 2.3
The level of expressed mRNA in the presence of chemical substance/The level of expressed mRNA in the absence of chemical substance (yeast gene YCR005C): 0.5
The level of expressed mRNA in the presence of chemical substance/The level of expressed mRNA in the absence of chemical substance (yeast gene YCR012W): 1.2
The level of expressed mRNA in the presence of chemical substance/The level of expressed mRNA in the absence of chemical substance (yeast gene YCR046C, cells incubated two hours with the chemical substance): 1.1
The level of expressed mRNA in the presence of chemical substance/The level of expressed mRNA in the absence of chemical substance (yeast gene YCR105W, cells incubated two hours with the chemical substance): 0.9
The level of expressed mRNA in the presence of chemical substance/The level of expressed mRNA in the absence of chemical substance (yeast gene YDL021W): 2.4
The level of expressed mRNA in the presence of chemical substance/The level of expressed mRNA in the absence of chemical substance (yeast gene YDL067C, cells incubated two hours with the chemical substance): 1.0
The level of expressed mRNA in the presence of chemical substance/The level of expressed mRNA in the absence of chemical substance (yeast gene YDL078C, cells incubated two hours with the chemical substance): 0.8
The level of expressed mRNA in the presence of chemical substance/The level of expressed mRNA in the absence of chemical substance (yeast gene YDL107W, cells incubated two hours with the chemical substance): 1.0
The level of expressed mRNA in the presence of chemical substance/The level of expressed mRNA in the absence of chemical substance (yeast gene YDL174C): 2.8
The level of expressed mRNA in the presence of chemical substance/The level of expressed mRNA in the absence of chemical substance (yeast gene YDL181W, cells incubated two hours with the chemical substance): 0.9
The level of expressed mRNA in the presence of chemical substance/The level of expressed mRNA in the absence of chemical substance (yeast gene YDR001C): 1.1
The level of expressed mRNA in the presence of chemical substance/The level of expressed mRNA in the absence of chemical substance (yeast gene YDR050C, cells incubated two hours with the chemical substance): 1.4
The level of expressed mRNA in the presence of chemical substance/The level of expressed mRNA in the absence of chemical substance (yeast gene YDR079W, cells incubated two hours with the chemical substance): 1.1
The level of expressed mRNA in the presence of chemical substance/The level of expressed mRNA in the absence of chemical substance (yeast gene YDR178W, cells incubated two hours with the chemical substance): 1.3
The level of expressed mRNA in the presence of chemical substance/The level of expressed mRNA in the absence of chemical substance (yeast gene YDR231C): 1.1
The level of expressed mRNA in the presence of chemical substance/The level of expressed mRNA in the absence of chemical substance (yeast gene YDR298C, cells incubated two hours with the chemical substance): 1.1
The level of expressed mRNA in the presence of chemical substance/The level of expressed mRNA in the absence of chemical substance (yeast gene YDR377W, cells incubated two hours with the chemical substance): 0.9
The level of expressed mRNA in the presence of chemical substance/The level of expressed mRNA in the absence of chemical substance (yeast gene YDR529C, cells incubated two hours with the chemical substance): 0.6
The level of expressed mRNA in the presence of chemical substance/The level of expressed mRNA in the absence of chemical substance (yeast gene YEL024W, cells incubated two hours with the chemical substance): 0.8
The level of expressed mRNA in the presence of chemical substance/The level of expressed mRNA in the absence of chemical substance (yeast gene YEL039C, cells incubated two hours with the chemical substance): 0.6
The level of expressed mRNA in the presence of chemical substance/The level of expressed mRNA in the absence of chemical substance (yeast gene YER178W): 1.3
The level of expressed mRNA in the presence of chemical substance/The level of expressed mRNA in the absence of chemical substance (yeast gene YFL057C): 1.0
The level of expressed mRNA in the presence of chemical substance/The level of expressed mRNA in the absence of chemical substance (yeast gene YFR053C): 1.7
The level of expressed mRNA in the presence of chemical substance/The level of expressed mRNA in the absence of chemical substance (yeast gene YGL018C, cells incubated two hours with the chemical substance): 1.0
The level of expressed mRNA in the presence of chemical substance/The level of expressed mRNA in the absence of chemical substance (yeast gene YGL062W): 1.6
The level of expressed mRNA in the presence of chemical substance/The level of expressed mRNA in the absence of chemical substance (yeast gene YGL187C, cells incubated two hours with the chemical substance): 0.8
The level of expressed mRNA in the presence of chemical substance/The level of expressed mRNA in the absence of chemical substance (yeast gene YGL191W, cells incubated two hours with the chemical substance): 0.9
The level of expressed mRNA in the presence of chemical substance/The level of expressed mRNA in the absence of chemical substance (yeast gene YGL205W, cells incubated two hours with the chemical substance): 1.1
The level of expressed mRNA in the presence of chemical substance/The level of expressed mRNA in the absence of chemical substance (yeast gene YGL256W, cells incubated two hours with the chemical substance): 0.9
The level of expressed mRNA in the presence of chemical substance/The level of expressed mRNA in the absence of chemical substance (yeast gene YGR043C): 3.3
The level of expressed mRNA in the presence of chemical substance/The level of expressed mRNA in the absence of chemical substance (yeast gene YGR062C, cells incubated two hours with the chemical substance, 25° C., YPD medium): 1.0
The level of expressed mRNA in the presence of chemical substance/The level of expressed mRNA in the absence of chemical substance (yeast gene YGR087C, cells incubated two hours with the chemical substance): 1.2
The level of expressed mRNA in the presence of chemical substance/The level of expressed mRNA in the absence of chemical substance (yeast gene YGR174C, cells incubated two hours with the chemical substance): 0.9
The level of expressed mRNA in the presence of chemical substance/The level of expressed mRNA in the absence of chemical substance (yeast gene YGR192C): 2.2
The level of expressed mRNA in the presence of chemical substance/The level of expressed mRNA in the absence of chemical substance (yeast gene YGR244C): 1.9
The level of expressed mRNA in the presence of chemical substance/The level of expressed mRNA in the absence of chemical substance (yeast gene YGR254W): 1.7
The level of expressed mRNA in the presence of chemical substance/The level of expressed mRNA in the absence of chemical substance (yeast gene YHR179W): 2.2
The level of expressed mRNA in the presence of chemical substance/The level of expressed mRNA in the absence of chemical substance (yeast gene YIL160C): 1.0
The level of expressed mRNA in the presence of chemical substance/The level of expressed mRNA in the absence of chemical substance (yeast gene YIR031C, cells incubated two hours with the chemical substance): 0.8
The level of expressed mRNA in the presence of chemical substance/The level of expressed mRNA in the absence of chemical substance (yeast gene YJL052W): 2.4
The level of expressed mRNA in the presence of chemical substance/The level of expressed mRNA in the absence of chemical substance (yeast gene YJL121C, cells incubated two hours with the chemical substance): 0.6
The level of expressed mRNA in the presence of chemical substance/The level of expressed mRNA in the absence of chemical substance (yeast gene YJL166W, cells incubated two hours with the chemical substance): 0.7
The level of expressed mRNA in the presence of chemical substance/The level of expressed mRNA in the absence of chemical substance (yeast gene YJL216C, cells incubated two hours with the chemical substance): 1.0
The level of expressed mRNA in the presence of chemical substance/The level of expressed mRNA in the absence of chemical substance (yeast gene YJR009C): 1.5
